Holding throughout (format): biochemical
In one assay the target is human ADAMTS-5 (Homo sapiens (Human), UniProt Q9UNA0). The assay can be described thus: hADAMTS-5 TBIS-1 cleavage assay, Protocol 3. Particulars: Protocol 3, TBIS-1 substrate, 90 min at 37° C.; read-out: hADAMTS-5 potency IC50. The procedure: The reaction is initiated by adding to the assay plate TBIS-1 (10 μL, 4.5 μM, Anaspec) in the same buffer.
Finally, the fluorescence is read on the Envision (Perkin Elmer) after an incubation of 90 min at 37° C. (Excitation 485 nm, emission 530).

A further assay deals with human ADAMTS6 (Homo sapiens (Human), UniProt Q9UKP5). The assay can be described thus: hADAMTS-6 520 MMP FRET substrate XII cleavage assay. Particulars: 37° C. for 2 h, read-out: hADAMTS-6 potency IC50. The method in brief: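 FRET cleavage of 520 MMP Substrate XII (Arg-Pro-Lys-Pro-Tyr-Ala-Nva-Trp-Met-Lys) by 0.73 nM enzyme in 25 mM Tris pH8.0, 0.05% CHAPS, 2.5 mM CaCl2. Compound dilution series from 20 μM top, 1/5 steps; substrate added from 1 μM stock, 2 h at 37° C. Fluorescence read at exc485/em530 for IC50.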

Another assay has as its target human TACE (Homo sapiens (Human), UniProt P78536). Put plainly: hTACE 5FAM-[…]-5TAMRA cleavage assay. Particulars: 75 min at room temperature, read-out: hTACE potency IC50. The protocol: Finally, the fluorescence is read on the Envision (Perkin Elmer) after an incubation of 75 min at room temperature (Excitation 485 nm, Emission 530).
For the next assay, the target named is human MMP13 (Homo sapiens (Human), UniProt P45452). Put plainly: hMMP13 390 MMP FRET Substrate I cleavage assay, Protocol 2. The settings on record: Protocol 2, 390 MMP FRET Substrate I; read-out: hMMP-13 potency IC50. The protocol: The basis for the assay is the cleavage of the substrate 390 MMP FRET Substrate I (Anaspec Cat# AS-27076) by human MMP13 (Chemicon, Cat#CC068).
Human MMP13 is preactivated by incubated the enzyme in the same buffer complemented with 1 mM freshly prepared p-Aminophenylmercuric acetate (AMPA) for 1 h at 37° C.
(§1) The reaction is initiated by adding to the assay plate 390 MMP FRET Substrate I (10 μL, 2.5 μM) in the same buffer.
Finally, the fluorescence is read on the Envision (Perkin Elmer) after an incubation of 45 min at room temperature (Excitation 485 nm, Emission 530).

In another assay the target is human MMP14 (Homo sapiens (Human), UniProt P50281). The assay can be described thus: hMMP14 390 MMP FRET Substrate I cleavage assay. Particulars: 60 min at room temperature, read-out: hMMP-14 potency IC50. The protocol:
The basis for the assay is the cleavage of the substrate 390 MMP FRET Substrate I (Anaspec Cat# AS-27076) by human MMP14 (Biomol, Cat#SE-259).
as §1
Finally, the fluorescence is read on the Envision (Perkin Elmer) after an incubation of 60 min at room temperature (Excitation 485 nm, Emission 530).

Read-outs that look alike come from different tables or passages of the source.

Sequence of human ADAMTS6 (Q9UKP5 other isoform, or with tags, fused parts or gaps): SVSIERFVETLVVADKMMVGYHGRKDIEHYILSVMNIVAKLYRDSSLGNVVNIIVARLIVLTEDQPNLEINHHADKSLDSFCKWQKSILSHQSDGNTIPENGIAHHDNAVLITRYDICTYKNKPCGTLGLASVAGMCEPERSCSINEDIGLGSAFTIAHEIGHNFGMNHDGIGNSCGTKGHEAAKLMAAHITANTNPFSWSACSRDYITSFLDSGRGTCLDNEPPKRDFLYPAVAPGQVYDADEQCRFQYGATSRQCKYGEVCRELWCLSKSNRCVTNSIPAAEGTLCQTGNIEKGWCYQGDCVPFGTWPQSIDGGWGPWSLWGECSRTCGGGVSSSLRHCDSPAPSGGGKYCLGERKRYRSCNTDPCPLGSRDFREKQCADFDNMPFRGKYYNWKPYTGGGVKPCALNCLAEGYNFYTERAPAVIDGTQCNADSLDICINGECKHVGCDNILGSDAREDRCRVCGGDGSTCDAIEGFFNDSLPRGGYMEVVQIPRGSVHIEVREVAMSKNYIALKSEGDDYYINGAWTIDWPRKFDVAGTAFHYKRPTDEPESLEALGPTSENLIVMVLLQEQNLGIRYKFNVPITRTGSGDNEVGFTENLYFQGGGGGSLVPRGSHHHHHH
Sequence of human TACE (P78536 215-671): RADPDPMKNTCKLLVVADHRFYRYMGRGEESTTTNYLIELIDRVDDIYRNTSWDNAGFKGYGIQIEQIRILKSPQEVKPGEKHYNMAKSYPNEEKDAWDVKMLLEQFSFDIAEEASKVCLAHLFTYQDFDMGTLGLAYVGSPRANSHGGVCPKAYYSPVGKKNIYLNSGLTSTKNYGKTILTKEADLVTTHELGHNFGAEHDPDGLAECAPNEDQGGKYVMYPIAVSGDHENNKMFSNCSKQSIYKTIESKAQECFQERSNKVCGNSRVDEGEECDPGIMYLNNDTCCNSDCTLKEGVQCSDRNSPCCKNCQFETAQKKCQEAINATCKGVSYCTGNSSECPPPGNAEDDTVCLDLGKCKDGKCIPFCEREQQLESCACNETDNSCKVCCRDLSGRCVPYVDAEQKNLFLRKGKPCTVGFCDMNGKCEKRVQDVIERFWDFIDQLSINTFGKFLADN
Sequence of human ADAMTS-5 (Q9UNA0 262-930): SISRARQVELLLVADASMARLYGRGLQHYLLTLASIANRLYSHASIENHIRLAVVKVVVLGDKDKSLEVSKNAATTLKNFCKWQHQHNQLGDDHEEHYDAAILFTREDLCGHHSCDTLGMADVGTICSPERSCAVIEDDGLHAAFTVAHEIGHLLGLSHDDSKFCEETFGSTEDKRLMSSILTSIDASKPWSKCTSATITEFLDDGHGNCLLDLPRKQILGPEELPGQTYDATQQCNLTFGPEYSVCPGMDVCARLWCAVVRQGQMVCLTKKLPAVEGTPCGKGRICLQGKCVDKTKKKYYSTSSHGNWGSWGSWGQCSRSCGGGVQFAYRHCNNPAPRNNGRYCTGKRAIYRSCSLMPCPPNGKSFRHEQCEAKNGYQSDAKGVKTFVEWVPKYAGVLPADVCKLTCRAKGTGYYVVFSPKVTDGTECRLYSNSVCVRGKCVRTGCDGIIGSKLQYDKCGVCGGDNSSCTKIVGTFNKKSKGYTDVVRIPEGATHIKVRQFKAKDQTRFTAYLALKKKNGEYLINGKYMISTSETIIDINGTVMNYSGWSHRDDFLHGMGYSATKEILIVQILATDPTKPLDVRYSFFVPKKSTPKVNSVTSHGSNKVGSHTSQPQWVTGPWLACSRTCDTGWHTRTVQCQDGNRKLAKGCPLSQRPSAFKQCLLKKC

A word on the IC50: it is the concentration that gives 50% inhibition. As to `COc1cc(Cl)c(F)cc1C1CCN(C(=O)CC[C@@]2(C)NC(=O)NC2=O)CC1` [Cpd 100, (5R)-5-[3-[4-(4-chloro-5-fluoro-2-methoxy-phenyl)-1-piperidyl]-3-oxo-propyl]-5-methyl-imidazolidine-2,4-dione], the IC50 at human ADAMTS-5 is greater than 100 nM; at human ADAMTS6, 0.001 to 25 nM; at human TACE (5FAM-LAQAVRSSSRK-5TAMRA) it was greater than 100 nM; on human MMP13, greater than 100 nM; at human MMP14, greater than 100 nM.
On to `COc1cc(C2CCN(C(=O)CCC3(C)NC(=O)NC3=O)CC2)cc(OC)c1F` (stereo not drawn) [Cpd 72], for which the IC50 on human ADAMTS-5 is greater than 100 nM; on human ADAMTS6, 0.001 to 25 nM; at human TACE (5FAM-LAQAVRSSSRK-5TAMRA), greater than 100 nM; on human MMP13, greater than 100 nM; at human MMP14, greater than 100 nM.
In the case of `CCOc1cc(C2CCN(C(=O)CC[C@@]3(C)NC(=O)NC3=O)CC2)cc(OC)c1Cl` [Cpd 87, (5R)-5-[3-[4-(4-chloro-3-ethoxy-5-methoxy-phenyl)-1-piperidyl]-3-oxo-propyl]-5-methyl-imidazolidine-2,4-dione], the IC50 was greater than 100 nM at human ADAMTS-5; 0.001 to 25 nM at human ADAMTS6; 50 to 100 nM at human TACE (5FAM-[…]-5TAMRA); greater than 100 nM at human MMP13; greater than 100 nM on human MMP14.
Take `COc1cc(Cl)c(Cl)cc1C1CCN(C(=O)CC[C@H]2NC(=O)NC2=O)CC1` [Cpd 61, (R)-5-(3-(4-(4,5-dichloro-2-methoxyphenyl)piperidin-1-tl)-3-oxopropyl) imidazolidine-2,4-dione]: the concentration for half-maximal inhibition (IC50) at human ADAMTS-5 was greater than 100 nM; at human ADAMTS6, 0.001 to 25 nM; at human TACE (5FAM-LAQAVRSSSRK-5TAMRA), greater than 100 nM; at human MMP13, greater than 100 nM; on human MMP14, greater than 100 nM.
For `Cc1cc(Cl)c(F)cc1C1CCN(C(=O)CCC2(C)NC(=O)NC2=O)CC1` (stereo not drawn) [Cpd 64, 5-(3-(4-(4-chloro-5-fluoro-2-methylphenyl)piperidin-1-yl)-3-oxopropyl)-5-methyl-imidazolidine-2,4-dione], the half-maximal inhibitory concentration (IC50) on human ADAMTS-5 is greater than 100 nM; at human ADAMTS6 it was 25 to 50 nM; at human TACE (5FAM-LAQAVRSSSRK-5TAMRA), greater than 100 nM; at human MMP13, greater than 100 nM; on human MMP14, greater than 100 nM.
Consider `COc1cc(C2CCN(C(=O)CC[C@@]3(C)NC(=O)NC3=O)CC2)cc(OC)c1F` [Cpd 81, (5R)-5-[3-[4-(4-fluoro-3,5-dimethoxy-phenyl)-1-piperidyl]-3-oxo-propyl]-5-methyl-imidazolidine-2,4-dione], for which the IC50 at human ADAMTS-5 was 50 to 100 nM; on human ADAMTS6, 0.001 to 25 nM; at human TACE (5FAM-[…]-5TAMRA) it was 25 to 50 nM; on human MMP13, greater than 100 nM; at human MMP14, greater than 100 nM.
As to `COC[C@]1(C[C@H](C)C(=O)N2CCC(c3cc(F)c(Cl)c(OC)c3)CC2)NC(=O)NC1=O` (stereo in doubt) [Cpd 103, 5-[3-[4-(4-chloro-3-fluoro-5-methoxy-phenyl)-1-piperidyl]-2-methyl-3-oxo-propyl]-5-(methoxymethyl) imidazolidine-2,4-dione], the IC50 on human ADAMTS-5 was 0.001 to 25 nM; on human ADAMTS6 it was 0.001 to 25 nM; on human TACE (5FAM-[…]-5TAMRA) it was 50 to 100 nM; at human MMP13, greater than 100 nM; on human MMP14, greater than 100 nM.
Take `COC[C@]1(C[C@H](C)C(=O)N2CCC(c3cc(C)c(Cl)c(OC)c3)CC2)NC(=O)NC1=O` (stereo in doubt) [Cpd 114, 5-[3-[4-(4-chloro-3-methoxy-5-methyl-phenyl)-1-piperidyl]-2-methyl-3-oxo-propyl]-5-(methoxymethyl) imidazolidine-2,4-dione]: the IC50 was 25 to 50 nM on human ADAMTS-5; 0.001 to 25 nM at human ADAMTS6; 50 to 100 nM at human TACE (5FAM-[…]-5TAMRA); greater than 100 nM on human MMP13; greater than 100 nM on human MMP14.
For the compound `COc1cc(C2CCN(C(=O)CCC3(C)NC(=O)NC3=O)CC2)cc(Cl)c1F` (stereo not drawn) [Cpd 73, 5-(3-(4-(3-chloro-4-fluoro-5-methoxyphenyl)piperidin-1-yl)-3-oxopropyl)-5-methylimidazolidine-2,4-dione], the IC50 on human ADAMTS-5 is greater than 100 nM; on human ADAMTS6, 0.001 to 25 nM; on human TACE (5FAM-LAQAVRSSSRK-5TAMRA), greater than 100 nM; at human MMP13 it was greater than 100 nM; on human MMP14, greater than 100 nM.
For the compound `COc1cc(F)c(Cl)cc1C1CCN(C(=O)CC[C@@]2(C)NC(=O)NC2=O)CC1` [Cpd 101, (5R)-5-[3-[4-(5-chloro-4-fluoro-2-methoxy-phenyl)-1-piperidyl]-3-oxo-propyl]-5-methyl-imidazolidine-2,4-dione], the IC50 at human ADAMTS-5 is greater than 100 nM; at human ADAMTS6, 25 to 50 nM; on human TACE (5FAM-LAQAVRSSSRK-5TAMRA) it was greater than 100 nM; at human MMP13, greater than 100 nM; at human MMP14 it was greater than 100 nM.
Take `COc1c(Cl)cccc1C1CCN(C(=O)CCC2(C)NC(=O)NC2=O)CC1` (stereo not drawn) [Cpd 75, 5-(3-(4-(3-chloro-2-methoxyphenyl)piperidin-1-yl)-3-oxopropyl)-5-methylimidazolidine-2,4-dione]: the IC50 at human ADAMTS-5, on human ADAMTS6, at human TACE (5FAM-LAQAVRSSSRK-5TAMRA), on human MMP13 and at human MMP14 was greater than 100 nM each time.
In the case of `CCc1cc(C2CCN(C(=O)CC[C@@]3(C)NC(=O)NC3=O)CC2)cc(OC)c1Cl` [Cpd 105, (5R)-5-[3-[4-(4-chloro-3-ethyl-5-methoxy-phenyl)-1-piperidyl]-3-oxo-propyl]-5-methyl-imidazolidine-2,4-dione], the 50% inhibitory concentration (IC50) at human ADAMTS-5 was greater than 100 nM; at human ADAMTS6 it was 0.001 to 25 nM; at human TACE (5FAM-[…]-5TAMRA), 25 to 50 nM; at human MMP13, greater than 100 nM; at human MMP14, greater than 100 nM.
Regarding `CCc1cc(C2CCN(C(=O)CC[C@H]3NC(=O)NC3=O)CC2)cc(OC)c1Cl` [Cpd 106, (5R)-5-[3-[4-(4-chloro-3-ethyl-5-methoxy-phenyl)-1-piperidyl]-3-oxo-propyl] imidazolidine-2,4-dione], the IC50 on human ADAMTS-5 was greater than 100 nM; at human ADAMTS6, 0.001 to 25 nM; on human TACE (5FAM-[…]-5TAMRA), 50 to 100 nM; at human MMP13 it was greater than 100 nM; on human MMP14, greater than 100 nM.
Take `Cc1cc(C2CCN(C(=O)CC[C@@]3(C)NC(=O)NC3=O)CC2)cc(C)c1Cl` [Cpd 93, (5R)-5-[3-[4-(4-chloro-3,5-dimethyl-phenyl)-1-piperidyl]-3-oxo-propyl]-5-methyl-imidazolidine-2,4-dione]: the IC50 was greater than 100 nM at human ADAMTS-5; 0.001 to 25 nM on human ADAMTS6; 50 to 100 nM on human TACE (5FAM-[…]-5TAMRA); greater than 100 nM on human MMP13; greater than 100 nM at human MMP14.
Regarding `COc1cc(C2CCN(C(=O)CC[C@H]3NC(=O)NC3=O)CC2)cc(C)c1Cl` [Cpd 115, (5R)-5-[3-[4-(4-chloro-3-methoxy-5-methyl-phenyl)-1-piperidyl]-3-oxo-propyl] imidazolidine-2,4-dione], the IC50 at human ADAMTS-5 was greater than 100 nM; at human ADAMTS6 it was 0.001 to 25 nM; at human TACE (5FAM-[…]-5TAMRA) it was 50 to 100 nM; at human MMP13, greater than 100 nM; at human MMP14, greater than 100 nM.
Turning to `COc1cc(C2CCN(C(=O)[C@@H](C)C[C@@]3(C)NC(=O)NC3=O)CC2)cc(F)c1Cl` [Cpd 102], the IC50 is 25 to 50 nM on human ADAMTS-5; 0.001 to 25 nM at human ADAMTS6; 50 to 100 nM on human TACE (5FAM-[…]-5TAMRA); greater than 100 nM on human MMP13; greater than 100 nM at human MMP14.
`COc1cc(C2CCN(C(=O)CC[C@@]3(C)NC(=O)NC3=O)CC2)cc(C)c1Cl` [Cpd 98, (5R)-5-[3-[4-(4-chloro-3-methoxy-5-methyl-phenyl)-1-piperidyl]-3-oxo-propyl]-5-methyl-imidazolidine-2,4-dione]: the IC50 was 50 to 100 nM at human ADAMTS-5; 0.001 to 25 nM on human ADAMTS6; 25 to 50 nM at human TACE (5FAM-[…]-5TAMRA); greater than 100 nM on human MMP13; greater than 100 nM on human MMP14.
As for `COc1cc(C2CCN(C(=O)[C@@H](C)C[C@@]3(C)NC(=O)NC3=O)CC2)cc(C)c1Cl` (stereo in doubt) [Cpd 113, 5-[3-[4-(4-chloro-3-methoxy-5-methyl-phenyl)-1-piperidyl]-2-methyl-3-oxo-propyl]-5-methyl-imidazolidine-2,4-dione], the IC50 at human ADAMTS-5 is 25 to 50 nM; on human ADAMTS6, 0.001 to 25 nM; on human TACE (5FAM-[…]-5TAMRA), 50 to 100 nM; on human MMP13, greater than 100 nM; at human MMP14, greater than 100 nM.

These data come from patent publication US10550100B2, “5-[3-[piperzin-1-yl]-3-oxo-propyl]-imidazolidine-2,4-dione derivatives as ADAMTS 4 and 5 inhibitors for treating E.G. osteoarthritis” (GALAPAGOS NV, priority 2016, dated 2020).
